# Experiments:
# [1] = target: T1, autophosphorylation of PASK at position Thr307 in Hek293 cells overexpressing PASK (Homo sapiens, UniProt Q96RG2); assay: PASK autophosphorylation ELISA assay; format: cell-based; conditions: 24 h, ELISA readout
# T1 construct: expressed in transfected cells; host or cells: Hek293
# Experimental: The compounds of the invention are profiled in a cellular assay to determine their capacity to reduce the autophosphorylation levels of PASK at position Thr307 in Hek293 cells overexpressing PASK, using an ELISA-based readout.
# At day 1, a 96-well cell assay plate is coated with poly-D-lysine (50 μL/well of a 0.05 mg/mL solution in PBS) and incubated for 1 h at 37° C. The plate is subsequently washed once with PBS and stored dry at RT until further use. Hek293 cells are transfected with a pcDNA3.1-PASK(FL,WT)-FLAG construct (SEQ ID1) and seeded in culture medium (DMEM+10% FBS) in a poly-D-lysine coated 96-well plate (0.3 μL JetPEI DNA transfection reagent (Polyplus-transfection SA, Cat #101-40), 10 ng construct and 90 ng pBluescript, 60000 cells per well). […] The cell plate is incubated overnight at 37° C., 5% CO2.
# At day 2, the medium of the assay plate is removed and 100 μL of fresh medium (DMEM+10% FBS) is added to the plate. Cell plate is further incubated overnight at 37° C., 5% CO2. This to allow further expression of PASK protein.
# At day 3, the medium is removed and replaced with 100 μL of serum free medium (DMEM). Test compound is added to the plate (8 points concentration curve with 1/3 dilution steps starting from 30 μM final concentration in 0.3% DMSO final). In the positive and negative control wells of the plate, 0.3% DMSO final is added. For each tested condition, duplicates are made for ELISA readout. Cell plate is incubated 24 h at 37° C., 5% CO2.
# At day 4, the medium is removed and the plate is washed once with 100 μL/well PBS. Cells are lysed by adding 50 μL/well western blot lysis buffer (20 mM Tris pH 7.5, 150 mM NaCl and 1% Triton) to the plate. The assay plate is stored at −80° C. and thawed to perform the ELISA readout.
# At day 1, the ELISA plate is coated with the mouse anti-FLAG antibody (2 μg/mL diluted in PBS, 100 μL/well) and incubated overnight at 4° C.
# At day 2, the plate is washed once with 150 μL/well PBS. 200 μL/well blocking buffer (PBS with 3% BSA) is added and the plate is incubated for 4 h at RT. The plate is washed with 150 μL/well high salt washing buffer (20 mM Na2HPO4, 0.5% Triton X-100, 0.1% SDS, 0.1% BSA and 1 M NaCl) followed by one wash with 150 μL/well low salt washing buffer (20 mM Na2HPO4, 0.5% Triton X-100, 0.1% SDS, 0.1% BSA and 150 mM NaCl). Meanwhile, the cell lysate plate is thawed, two wells of the same condition are pooled (2×50 μL) and added to the ELISA plate. The ELISA plate is incubated overnight at 4° C.
# At day 3, the ELISA plate is washed twice with 150 μL/well high salt washing buffer followed by two washes with low salt washing buffer. 100 μL/well detection antibody for pPASK (phospho-Akt substrate (RXXS*/T*) (110B7E) rabbit antibody (Cell Signaling Technology, Inc., Cat #9614) 2 μg/mL diluted in PBS with 3% BSA and 1×Halt™ protease and phosphatase inhibitor cocktail (Thermo Fisher Scientific, Inc., Cat #78447)) is added and incubated for 2 h at RT. The plate is washed twice with high and low salt wash buffer (150 μL/well) and 100 μL/well of an HRP antibody (swine anti-rabbit HRP antibody (Agilent Technologies, Inc., Cat #P039901) diluted 1/2000 in PBS with 3% BSA and 1×Halt™ protease and phosphatase inhibitor cocktail) is added to the plate, followed by an incubation for 1 h at RT in the dark (plate sealed with aluminum seal). The plate is washed twice with high and low salt wash buffer (150 μL/well) and 100 μL/well of SuperSignal™ ELISA Pico Chemiluminescent Substrate (Thermo Fisher Scientific, Inc., Cat #37070)(premix part 1 and part 2, 1/1) is added. The plate is incubated for 4 min at RT before measuring luminescence on the Luminoskan™ Ascent (Thermo Fisher Scientific, Inc.) (PMT default voltage; 100 ms integration time). […]
# human PASK [2] = target: T2, human PASK (Homo sapiens, UniProt Q96RG2); assay: 33P radioactive kinase assay; format: biochemical; conditions: 33P radioactive PASK kinase assay, 10 μM ATP, ZIPtide 1 μM
# T2 construct: purchased ThermoFisher Scientific PR7013A
# T2 sequence (Q96RG2 whole entry): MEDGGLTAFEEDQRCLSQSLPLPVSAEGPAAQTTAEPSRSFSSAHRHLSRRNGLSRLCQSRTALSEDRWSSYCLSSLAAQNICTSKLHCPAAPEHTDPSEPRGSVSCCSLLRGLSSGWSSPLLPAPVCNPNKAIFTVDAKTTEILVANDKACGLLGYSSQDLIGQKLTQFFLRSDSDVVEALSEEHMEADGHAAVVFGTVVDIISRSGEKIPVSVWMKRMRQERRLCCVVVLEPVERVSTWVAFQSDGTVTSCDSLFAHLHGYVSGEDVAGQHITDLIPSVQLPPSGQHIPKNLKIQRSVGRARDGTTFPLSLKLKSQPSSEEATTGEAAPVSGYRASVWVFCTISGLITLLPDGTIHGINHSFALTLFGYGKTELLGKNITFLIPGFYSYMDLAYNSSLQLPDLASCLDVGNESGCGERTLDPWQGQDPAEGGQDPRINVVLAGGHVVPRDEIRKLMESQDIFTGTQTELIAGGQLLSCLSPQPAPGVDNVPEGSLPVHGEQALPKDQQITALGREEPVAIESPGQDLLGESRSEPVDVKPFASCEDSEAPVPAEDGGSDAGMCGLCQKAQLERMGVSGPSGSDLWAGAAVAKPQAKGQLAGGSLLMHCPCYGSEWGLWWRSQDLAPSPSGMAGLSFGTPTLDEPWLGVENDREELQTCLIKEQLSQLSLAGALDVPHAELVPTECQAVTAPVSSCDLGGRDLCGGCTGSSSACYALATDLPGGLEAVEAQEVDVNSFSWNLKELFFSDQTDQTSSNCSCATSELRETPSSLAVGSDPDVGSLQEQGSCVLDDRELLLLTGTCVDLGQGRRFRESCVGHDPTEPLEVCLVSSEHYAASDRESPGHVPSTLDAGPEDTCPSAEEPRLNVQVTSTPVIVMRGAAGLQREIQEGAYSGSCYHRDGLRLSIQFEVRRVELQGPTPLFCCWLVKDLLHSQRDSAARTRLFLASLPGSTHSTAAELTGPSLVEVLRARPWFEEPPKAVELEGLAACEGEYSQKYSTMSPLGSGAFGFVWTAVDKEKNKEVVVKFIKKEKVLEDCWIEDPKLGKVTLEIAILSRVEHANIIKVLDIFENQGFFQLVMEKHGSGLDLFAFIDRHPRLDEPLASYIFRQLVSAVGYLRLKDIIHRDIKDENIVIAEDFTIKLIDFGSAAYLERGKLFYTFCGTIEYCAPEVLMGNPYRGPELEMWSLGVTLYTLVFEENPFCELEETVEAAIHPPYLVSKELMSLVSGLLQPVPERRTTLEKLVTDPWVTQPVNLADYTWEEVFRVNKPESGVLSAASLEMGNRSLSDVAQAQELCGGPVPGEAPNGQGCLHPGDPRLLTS
# Method in brief: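 Human PASK phosphorylation of ZIPtide peptide was measured by incorporation from [^33P]-ATP plus unlabelled ATP, with a 10-point, 1/5 dilution series from 0.2 or 2 mM DMSO stocks and 1% DMSO final. Reactions were stopped with phosphoric acid, filter-harvested, washed and scintillation-counted. Percentage inhibition gave dose–response curves and averaged IC50s.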
# human PASK [3] = target: T2, human PASK; assay: ADP-Glo kinase assay; format: biochemical; conditions: ADPGlo PASK kinase assay, 25 μM ATP, ZIPtide 25 μM
# Method in brief: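 Human recombinant PASK phosphorylating ZIPtide peptide with ATP, 120 min at RT; compounds in 10-point 1/5 dilution series, 1% DMSO final. ADP formed measured by ADP-Glo luminescence after ATP depletion; percent inhibition fitted to dose-response curves for averaged IC50.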
# T1 sequence (Q96RG2 with tags, fused parts or gaps): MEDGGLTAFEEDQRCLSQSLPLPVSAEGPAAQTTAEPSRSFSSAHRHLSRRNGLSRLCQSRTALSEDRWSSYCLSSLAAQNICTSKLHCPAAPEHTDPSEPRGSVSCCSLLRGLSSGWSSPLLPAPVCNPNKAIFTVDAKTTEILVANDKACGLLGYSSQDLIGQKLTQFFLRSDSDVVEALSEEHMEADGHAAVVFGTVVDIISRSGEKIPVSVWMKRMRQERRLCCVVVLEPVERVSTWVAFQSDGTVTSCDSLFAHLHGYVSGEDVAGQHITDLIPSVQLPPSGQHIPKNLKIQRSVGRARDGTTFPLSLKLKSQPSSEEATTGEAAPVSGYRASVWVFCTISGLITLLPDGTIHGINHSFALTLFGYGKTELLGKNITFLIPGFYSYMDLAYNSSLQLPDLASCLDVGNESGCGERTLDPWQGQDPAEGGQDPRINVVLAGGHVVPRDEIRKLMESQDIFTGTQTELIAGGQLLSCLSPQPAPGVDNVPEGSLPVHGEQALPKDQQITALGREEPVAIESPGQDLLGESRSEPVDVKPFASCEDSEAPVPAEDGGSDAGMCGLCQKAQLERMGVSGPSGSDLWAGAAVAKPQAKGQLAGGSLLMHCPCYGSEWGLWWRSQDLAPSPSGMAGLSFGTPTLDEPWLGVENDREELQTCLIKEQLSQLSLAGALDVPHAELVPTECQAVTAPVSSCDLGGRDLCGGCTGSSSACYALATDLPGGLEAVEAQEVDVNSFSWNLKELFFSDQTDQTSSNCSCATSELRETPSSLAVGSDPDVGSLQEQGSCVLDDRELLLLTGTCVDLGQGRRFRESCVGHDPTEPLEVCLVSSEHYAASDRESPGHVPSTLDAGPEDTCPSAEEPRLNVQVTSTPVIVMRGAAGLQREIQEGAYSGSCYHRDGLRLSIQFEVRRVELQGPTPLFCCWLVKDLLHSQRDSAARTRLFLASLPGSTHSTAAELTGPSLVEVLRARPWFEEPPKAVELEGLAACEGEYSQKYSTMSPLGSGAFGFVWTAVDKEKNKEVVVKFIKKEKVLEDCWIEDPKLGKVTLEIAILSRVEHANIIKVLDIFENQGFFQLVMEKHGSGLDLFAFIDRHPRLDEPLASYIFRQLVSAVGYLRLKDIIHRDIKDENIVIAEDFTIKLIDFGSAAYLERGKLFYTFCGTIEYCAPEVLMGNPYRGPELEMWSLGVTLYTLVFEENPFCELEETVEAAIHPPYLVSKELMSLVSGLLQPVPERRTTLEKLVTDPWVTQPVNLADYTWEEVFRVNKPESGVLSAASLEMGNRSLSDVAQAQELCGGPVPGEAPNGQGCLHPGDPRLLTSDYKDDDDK
IC50 [1] [nM],IC50 (human PASK [2]) [nM],IC50 (human PASK [3]) [nM],Compound
0.1 to 500,0.01 to 10,0.01 to 10,"Cc1nn(C(C)C)c(C)c1-c1cnn2ccc(-c3nc(C4CC4)c(C(=O)O)s3)cc12 [Cpd 39, 4-cyclopropyl-2-[3-(1-isopropyl-3,5-dimethyl-pyrazol-4-yl)pyrazolo[1,5-a]pyridin-5-yl]thiazole-5-carboxylic acid]"
0.1 to 500,0.01 to 10,0.01 to 10,"CCn1nc(C)c(-c2cnn3ccc(-c4nc(C5CC5)c(C(=O)O)s4)cc23)c1C [Cpd 38, 4-cyclopropyl-2-[3-(1-ethyl-3,5-dimethyl-pyrazol-4-yl)pyrazolo[1,5-a]pyridin-5-yl]thiazole-5-carboxylic acid]"
1000 to 5000,0.01 to 10,0.01 to 10,"Cc1nn(C)c(C)c1-c1cnn2ccc(-c3cc(C(N)=O)co3)cc12 [Cpd 43, 5-[3-(1,3,5-trimethylpyrazol-4-yl)pyrazolo[1,5-a]pyridin-5-yl]furan-3-carboxamide]"
0.1 to 500,0.01 to 10,0.01 to 10,"Cc1nn(CC(F)(F)F)c(C)c1-c1cnn2ccc(-c3nc(C4CC4)c(C(=O)O)s3)cc12 [Cpd 42, 4-cyclopropyl-2-[3-[3,5-dimethyl-1-(2,2,2-trifluoroethyl)pyrazol-4-yl]pyrazolo[1,5-a]pyridin-5-yl]thiazole-5-carboxylic acid]"

# From patent US20220144823A1, “PYRAZOLOPYRIDINE DERIVATIVES AS INHIBITORS OF PASK” (Galapagos NV, priority 2019, published 2022)
